Assay results published in patent US11180495B2 (Abbisko Therapeutics Co., Ltd., priority 2017, dated 2021).
Read-outs that look alike come from different tables or passages of the source.

Assays:
PDGFRA = PDGFRA (Homo sapiens, UniProt P16234); test: PDGFRA in vitro biochemical kinase study (Caliper EZ Reader); settings: FAM-labeled polypeptide, Caliper EZ Reader II; read-out: Enzymatic experiment PDGFRA IC50
Procedure: (§1) In the present invention, the inhibitory activity of compounds against the CSF-1R activity was determined by using CSF-1R ADP-Glo assay. The compound-mediated inhibition effect was achieved by inhibiting the production of ADP from consumption of ATP, and the activities of compounds were evaluated by using the ADP-Glo kit (Promega, cat. No. V9101). The specific experimental process was as follows: • 1. The kinase reaction performed in the present invention was carried out in a 384-well plate (Perkinelmer, cat. No. 6007290), and 3.95 nM of CSF-1R, 500 μM of ATP and 0.2 mg/mL of polypeptide (Poly (Glu4, Try1), Sigma, cat. No. P0275) were respectively weighed and added to each well: • 2. following reagents were then added to each well to reach the final reaction system: 40 mM Tris, pH 7.5, 20 mM MgCl2, 0.01% Triton X-100, 0.1 mg/mL BSA, 2.5 mM DTT and 0.1% DMSO; • 3. the reaction was conducted at 30° C. for 60 min; • 4. then an equal volume of stop solution (ADP-Glo) was added to the kinase reaction system; • 5. the mixed solution was incubated at 25° C. for 60 min, and the kinase reaction was then terminated; • 6. a two-fold volume of detection reagent was then added to each well; • 7. the mixed solution was incubated at 25° C. for 30 min; • 8. the compound IC50 value was measured by using a plate reader (Tecan, M1000) and a four-parameter curve was generated in Graphpad Prism. B. KIT/PDGFRA In Vitro Biochemical Kinase Study • 1. Preparation of 1-fold kinase buffer and stop solution • 1.1 1-fold kinase buffer: 50 mM HEPES, pH 7.5, 0.0015% Brij-35. • 1.2 stop solution: 100 mM HEPES, pH 7.5, 0.015% Brij-35, 0.2% Coating Reagent #3 50 mM EDTA • 2. Preparation of compound solution • 2.1 Dilution of compound solution • 1) The final concentration of the compound solution was 40 μM. and the concentration of the prepared stock solution was 50 times of the final concentration, i.e., 2 mM. • 2) 80 μL of 100% DMSO was added to the second well of the 96-well plate, then 20 μL of 10 mM compound solution was added, and thereby 2 mM compound solution was prepared, 60 μL of 100% DMSO was added to other wells, 20 μL of compound was taken from the second well, added to the third well and diluted by 4 times. […]

[1] = tested on: M-NFS-60 mouse myeloid leukemia lymphocytes; test: CSF-1R-related cell proliferation experiment (Cell Titer Glo); type: cell-based; settings: 72 h, M-NFS-60 cells, 3 days, CTG
Procedure: Functional effects of compounds on cell proliferation were evaluated by using Cell Titer Glo (CTG) study in the present invention. M-NFS-60 mouse myeloid leukemia lymphocytes (cat. No. CCBJ078) from National Institutes For Food and Drug Control were cultured in the incubator under conditions of RPMI 1640 (Gibco, cat. No. 11875-119), 10% fetal bovine serum (Gibco, 10099-141), human 10 ng/mL M-CSF macrophage colony-stimulating factor (R&D, cat. No. MVN0915101), 37° C. and 5% CO2. Since ATP is an index for viable cell metabolism, CTG (Promega, #G7573) reagent is a homogeneous detection method for detecting the number of viable cells in the culture by quantifying ATP. Therefore, compound-mediated inhibition for cell proliferation/survival was evaluated by quantifying ATP in cells, and the specific experimental process was as follows: • 1. The cells were plated into a tissue-culture-medium-treated 96-well plate (Costar #3904) with 5,000 cells/well/80 μL fresh culture medium: • 2. 24 hours later, 10 μL culture medium containing testing compound with 10-fold of final concentration was added to each well; • 3. 10 μL of culture medium containing M-CSF with 10-fold of the final concentration was then added to each well: • 4. dosage effect was evaluated by testing the 3-fold serial dilutions of the compound; • 5. after the cells were incubated for 3 days at 37° C. and 5% CO2, the inhibition on cell survival was quantified after 50 μL of CTG was added and the luminescence assay was performed; • 6. the compound concentration leading to half maximal inhibitory (IC50) and the compound concentration leading to absolute half maximal inhibitory (Absolute IC50) were measured by a plate reader (M1000, Tecan) and a four-parameter curve fit in Graphpad Prism 7. D. CSF-1R-Related Cell Proliferation Experiment

KIT = KIT (Homo sapiens, UniProt P10721); test: KIT in vitro biochemical kinase study (Caliper EZ Reader); settings: FAM-labeled polypeptide, Caliper EZ Reader II; read-out: Enzymatic experiment KIT IC50
Chain of KIT (P10721 26-976): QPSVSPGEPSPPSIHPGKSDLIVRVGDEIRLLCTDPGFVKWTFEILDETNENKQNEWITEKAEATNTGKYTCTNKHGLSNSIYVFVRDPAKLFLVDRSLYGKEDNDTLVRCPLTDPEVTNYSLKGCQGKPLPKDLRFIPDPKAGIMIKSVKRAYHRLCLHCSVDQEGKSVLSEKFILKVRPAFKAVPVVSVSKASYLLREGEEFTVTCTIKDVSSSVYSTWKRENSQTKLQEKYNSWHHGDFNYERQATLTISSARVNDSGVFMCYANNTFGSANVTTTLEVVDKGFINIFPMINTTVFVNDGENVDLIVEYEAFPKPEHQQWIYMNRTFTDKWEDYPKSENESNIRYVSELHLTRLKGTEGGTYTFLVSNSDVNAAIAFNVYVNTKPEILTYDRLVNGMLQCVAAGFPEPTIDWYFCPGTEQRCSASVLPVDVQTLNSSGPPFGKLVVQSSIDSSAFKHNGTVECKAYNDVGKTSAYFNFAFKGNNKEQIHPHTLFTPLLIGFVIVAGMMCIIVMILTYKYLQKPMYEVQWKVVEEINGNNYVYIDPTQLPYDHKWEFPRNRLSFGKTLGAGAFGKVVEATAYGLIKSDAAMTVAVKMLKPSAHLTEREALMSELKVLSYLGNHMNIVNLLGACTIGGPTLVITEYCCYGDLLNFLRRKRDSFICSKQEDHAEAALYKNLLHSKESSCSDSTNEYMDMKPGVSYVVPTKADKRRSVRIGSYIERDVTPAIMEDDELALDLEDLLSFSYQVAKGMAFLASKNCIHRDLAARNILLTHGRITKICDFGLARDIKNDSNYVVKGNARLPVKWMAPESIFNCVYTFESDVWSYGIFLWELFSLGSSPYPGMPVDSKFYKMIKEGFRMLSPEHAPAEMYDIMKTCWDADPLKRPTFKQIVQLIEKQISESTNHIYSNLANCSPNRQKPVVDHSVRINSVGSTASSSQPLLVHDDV
Procedure: as §1

CSF-1R = target: T1, CSF-1R (Homo sapiens, UniProt P07333); test: CSF-1R in vitro biochemical kinase study (ADP-Glo assay); settings: 3.95 nM CSF-1R, 500 μM ATP, 30° C. 60 min, read-out: Enzymatic experiment CSF-1R IC50
T1 construct: 3.95 nM of CSF-1R, 500 μM of ATP and 0.2 mg/mL of polypeptide
T1 sequence (P07333 20-972): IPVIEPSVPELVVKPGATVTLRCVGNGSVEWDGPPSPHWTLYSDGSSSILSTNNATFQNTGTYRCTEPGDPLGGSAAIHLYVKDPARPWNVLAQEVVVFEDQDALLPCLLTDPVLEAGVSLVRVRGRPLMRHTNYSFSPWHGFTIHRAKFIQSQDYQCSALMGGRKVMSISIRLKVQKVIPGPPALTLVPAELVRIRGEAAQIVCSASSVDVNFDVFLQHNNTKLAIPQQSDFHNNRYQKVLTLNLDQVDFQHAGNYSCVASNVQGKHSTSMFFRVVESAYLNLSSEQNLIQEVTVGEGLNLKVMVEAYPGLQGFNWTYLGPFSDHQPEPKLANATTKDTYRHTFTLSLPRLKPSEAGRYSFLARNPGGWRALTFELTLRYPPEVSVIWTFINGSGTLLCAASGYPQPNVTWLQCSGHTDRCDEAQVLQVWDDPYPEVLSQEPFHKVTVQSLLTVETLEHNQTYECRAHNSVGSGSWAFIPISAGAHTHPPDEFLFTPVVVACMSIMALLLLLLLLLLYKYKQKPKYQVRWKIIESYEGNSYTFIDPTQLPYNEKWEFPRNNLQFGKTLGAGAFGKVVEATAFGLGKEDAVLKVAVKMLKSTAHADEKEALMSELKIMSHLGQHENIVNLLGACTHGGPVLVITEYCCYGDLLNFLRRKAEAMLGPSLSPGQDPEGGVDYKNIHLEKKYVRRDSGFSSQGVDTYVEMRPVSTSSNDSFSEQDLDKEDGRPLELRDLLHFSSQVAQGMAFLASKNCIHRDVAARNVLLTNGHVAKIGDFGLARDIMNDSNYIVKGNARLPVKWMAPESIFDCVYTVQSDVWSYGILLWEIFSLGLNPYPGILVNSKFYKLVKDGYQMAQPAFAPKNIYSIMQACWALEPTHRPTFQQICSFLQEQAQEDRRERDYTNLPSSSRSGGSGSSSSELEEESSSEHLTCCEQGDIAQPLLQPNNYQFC
Procedure: In the present invention, the inhibitory activity of compounds against the CSF-1R activity was determined by using CSF-1R ADP-Glo assay. The compound-mediated inhibition effect was achieved by inhibiting the production of ADP from consumption of ATP, and the activities of compounds were evaluated by using the ADP-Glo kit (Promega, cat. No. V9101). The specific experimental process was as follows: • 1. The kinase reaction performed in the present invention was carried out in a 384-well plate (Perkinelmer, cat. No. 6007290), and 3.95 nM of CSF-1R, 500 μM of ATP and 0.2 mg/mL of polypeptide (Poly (Glu4, Try1), Sigma, cat. No. P0275) were respectively weighed and added to each well: • 2. following reagents were then added to each well to reach the final reaction system: 40 mM Tris, pH 7.5, 20 mM MgCl2, 0.01% Triton X-100, 0.1 mg/mL BSA, 2.5 mM DTT and 0.1% DMSO; • 3. the reaction was conducted at 30° C. for 60 min; • 4. then an equal volume of stop solution (ADP-Glo) was added to the kinase reaction system; • 5. the mixed solution was incubated at 25° C. for 60 min, and the kinase reaction was then terminated; • 6. a two-fold volume of detection reagent was then added to each well; • 7. the mixed solution was incubated at 25° C. for 30 min; • 8. the compound IC50 value was measured by using a plate reader (Tecan, M1000) and a four-parameter curve was generated in Graphpad Prism. B. KIT/PDGFRA In Vitro Biochemical Kinase Study • 1. Preparation of 1-fold kinase buffer and stop solution • 1.1 1-fold kinase buffer: 50 mM HEPES, pH 7.5, 0.0015% Brij-35. • 1.2 stop solution: 100 mM HEPES, pH 7.5, 0.015% Brij-35, 0.2% Coating Reagent #3 50 mM EDTA • 2. Preparation of compound solution • 2.1 Dilution of compound solution • 1) The final concentration of the compound solution was 40 μM. and the concentration of the prepared stock solution was 50 times of the final concentration, i.e., 2 mM. • 2) 80 μL of 100% DMSO was added to the second well of the 96-well plate, then 20 μL of 10 mM compound solution was added, and thereby 2 mM compound solution was prepared, 60 μL of 100% DMSO was added to other wells, 20 μL of compound was taken from the second well, added to the third well and diluted by 4 times. This serial 4-time dilution was conducted in sequence for the total of 10 concentrations. • 2.2 5-fold compound solution transferred to a reaction plate • 1) 10 μL of solution was taken from each well of the above 96-well plate and added to another 96-well plate, and 90 μL of kinase buffer was added. • 2) 5 μL of solution was taken from the above 96-well plate and added to a 384-well reaction plate. • 2.3 Kinase reaction • 1) KIT/PDGFRA kinase was added to the 1-fold kinase buffer solution to obtain a 2.5-fold kinase solution. • 2) FAM-labeled polypeptide and ATP were added to the 1-fold kinase buffer solution to obtain a 2.5-fold substrate solution. • 3) 10 μL of 2.5-fold kinase solution was added to the 384-well reaction plate, which already contained 5 μL of 5-fold compound in 10% DMSO. And the mixed solution was incubated at room temperature for 10 min. • 4) 10 μL of 2.5-fold substrate solution was added to the 384-well reaction plate. • 5) Kinase reaction and termination: the mixed solution was incubated at 28° C. for a certain period of time, and 25 μL of stop solution was added to stop the reaction. • 2.4 Data reading of Caliper EZ Reader II • 2.5 Calculation of percent inhibition and IC50 • 1) Percent conversion data were copied from the Caliper EZ Reader. • 2) Percent conversion was converted into percent inhibition data, wherein, max referred to percent conversion of the DMSO control, and min referred to percent conversion of the negative control without kinase activity. Percent inhibition=(max−conversion)/(max−min)*100. • 3) The IC50 value was fitted with XLFit excel add-in version 5.4.0.8: Fitting formula: Y=Bottom+(Top−Bottom)/(1+(IC50/X)^HillSlope).

[2] = absolute half maximal inhibitory concentration, read-out: Cytological experiment CSF-1R Absolute IC50
[3] = read-out: Cytological experiment CSF1R IC50

Chain of PDGFRA (P16234 24-1089): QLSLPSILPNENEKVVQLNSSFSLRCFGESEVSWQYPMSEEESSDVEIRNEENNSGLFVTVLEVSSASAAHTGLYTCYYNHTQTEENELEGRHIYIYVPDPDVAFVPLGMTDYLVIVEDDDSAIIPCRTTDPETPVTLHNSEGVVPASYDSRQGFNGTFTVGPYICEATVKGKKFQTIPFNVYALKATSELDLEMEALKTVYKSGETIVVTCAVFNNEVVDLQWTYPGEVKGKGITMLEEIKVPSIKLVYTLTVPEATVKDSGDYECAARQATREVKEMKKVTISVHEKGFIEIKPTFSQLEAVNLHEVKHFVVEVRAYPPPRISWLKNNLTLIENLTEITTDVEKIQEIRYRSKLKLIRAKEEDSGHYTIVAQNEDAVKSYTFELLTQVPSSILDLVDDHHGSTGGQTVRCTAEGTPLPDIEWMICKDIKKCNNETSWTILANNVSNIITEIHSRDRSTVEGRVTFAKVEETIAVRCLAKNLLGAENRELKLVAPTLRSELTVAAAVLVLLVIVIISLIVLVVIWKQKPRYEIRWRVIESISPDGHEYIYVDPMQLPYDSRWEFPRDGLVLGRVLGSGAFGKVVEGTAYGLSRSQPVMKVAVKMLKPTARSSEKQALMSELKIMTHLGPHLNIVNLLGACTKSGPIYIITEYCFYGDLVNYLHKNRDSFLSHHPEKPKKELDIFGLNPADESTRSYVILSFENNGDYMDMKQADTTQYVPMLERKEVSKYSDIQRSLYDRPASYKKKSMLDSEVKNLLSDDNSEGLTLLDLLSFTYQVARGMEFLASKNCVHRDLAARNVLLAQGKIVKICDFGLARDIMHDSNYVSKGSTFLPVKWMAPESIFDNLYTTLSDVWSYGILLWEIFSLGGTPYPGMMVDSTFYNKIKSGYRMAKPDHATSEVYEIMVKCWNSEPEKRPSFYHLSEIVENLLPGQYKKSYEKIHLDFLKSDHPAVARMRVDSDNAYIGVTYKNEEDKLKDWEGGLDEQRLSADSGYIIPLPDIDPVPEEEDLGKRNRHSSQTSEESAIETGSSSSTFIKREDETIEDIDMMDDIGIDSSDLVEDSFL

Row | Structure (SMILES) | IC50 (PDGFRA) [nM] | IC50 [1, 2] [nM] | IC50 [1, 3] [nM] | IC50 (KIT) [nM] | IC50 (CSF-1R) [nM]
1 | Cc1nc(-c2cnc(NC(C)C)[nH]c2=O)ccc1Cc1c[nH]c2ncccc12 [Example 1, 5-(5-((1H-pyrrolo[2,3-b]pyridin-3-yl)methyl)-6-methylpyridin-2-yl)-2-(isopropylamino)pyrimidin-4(3H)-one] | 6910 | 18.8 | 46.5 | 248 | 27.4
2 | Cc1nc(-c2cnc(NC(C)C)n(C)c2=O)ccc1Cc1c[nH]c2ncc(Cl)cc12 [Example 10, 5-(5-((5-chloro-1H-pyrrolo[2,3-b]pyridin-3-yl)methyl)-6-methylpyridin-2-yl)-2-(isopropylamino)-3-methylpyrimidin-4(3H)-one] | 681 | 31.5 | 40.2 | 13.7 | 32.1
